Measured values published in patent publication US20240051978A1, “3-CYCLIC AMINE-INDOLE DERIVATIVES AS SEROTONERGIC AGENTS FOR THE TREATMENT OF CNS DISORDERS” (MINDSET PHARMA INC., priority 2020, published 2024).

Legend:
[1] = Liver microsomes stability, rat; conditions: for Predicted hepatic CL: Rat liver microsomes, with NADPH; for Remaining Percentage (%) 0 min / Remaining Percentage (%) 60 min: Rat; for CLint scaled at 2 μM / half-life at 2 μM / microsomal CLint at 2 μM: rat, microsomes
Method: (§1) The objective of this study was to estimate in vitro metabolic stability of 1-12 in pooled human and male mouse liver microsomes. The concentrations of parent compounds in reaction systems were evaluated by LC-MS/MS for estimating the stability in pooled human and male mouse liver microsomes. The in vitro intrinsic clearances of test compounds were determined as well.
(§2) A master solution in the “Incubation Plate” containing phosphate buffer, ultra-pure H2O, MgCl2 solution and liver microsomes was made according to Table 3. The mixture was pre-warmed at 37° C. water bath for 5 minutes.
(§3) 40 μL of 10 mM NADPH solution was added to each well. The final concentration of NADPH was 1 mM. The negative control samples were prepared by replacing NADPH with 40 μL of ultra-pure H2O. Samples were prepared in duplicate. Negative controls were prepared in singlet.
(§4) The reaction was started with the addition of 4 μL of 200 μM exemplary test compounds or control compounds to each master solution to get the final concentration of 2 μM. This study was performed in duplicate.
(§5) Aliquots of 50 μL were taken from the reaction solution at 0, 15, 30, 45 and 60 minutes. The reaction solutions were stopped by the addition of 4 volumes of cold methanol with IS (100 nM alprazolam, 200 nM imipramine, 200 nM labetalol and 2 μM ketoprofen). Samples were centrifuged at 3,220 g for 40 minutes. Aliquot of 90 μL of the supernatant was mixed with 90 μL of ultra-pure H2O and then was used for LC-MS/MS analysis.
(§6) LC/MS analysis was performed for all samples from this study using a Shimadzu liquid chromatograph separation system equipped with degasser DUG-20A5R; solvent delivery unit LC-30AD; system controller SIL-30AC; column oven CTO-30A; CTC Analytics HTC PAL System; Mass spectrometric analysis was performed using an Triple Quad™ 5500 instrument.
(§7) All calculations were carried out using Microsoft Excel. Peak area ratios of test compound to internal standard (listed in the below table) were determined from extracted ion chromatograms.
(§8) All calculations were carried out using Microsoft Excel. Peak areas were determined from extracted ion chromatograms. The slope value, k, was determined by linear regression of the natural logarithm of the remaining percentage of the parent drug vs. incubation time curve.
(§9) The in vitro half-life (in vitro t½) was determined from the slope value:
(§10) Conversion of the in vitro t½ (min) into the in vitro intrinsic clearance (in vitro CLint, in μL/min/mg proteins) was done using the following equation (mean of duplicate determinations): […]

[2] = Liver microsomes stability, mouse; conditions: for Remaining Percentage (%) 0 min / Remaining Percentage (%) 60 min: Mouse; for CLint scaled at 2 μM / half-life at 2 μM / microsomal CLint at 2 μM: male, mouse, microsomes
Method: as §1, §2, §3, §4, §5, §6, §7, §8, §9, §10

[3] = Liver microsomes stability, human; conditions: for Predicted hepatic CL: Human liver microsomes, with NADPH; for Remaining Percentage (%) 0 min / Remaining Percentage (%) 60 min: Human; for CLint scaled at 2 μM / half-life at 2 μM / microsomal CLint at 2 μM: human, microsomes
Method: as §1, §2, §3, §4, §5, §6, §7, §8, §9, §10

human 5-HT2A receptor = human 5-HT2A receptor (Homo sapiens (Human), UniProt P28223); assay: Radioligand binding assay ([3H]-ketanserin) on human 5-HT2A receptor; conditions: [3H]-ketanserin competition; read-out: h5-HT2A IC50
Method: • i. The assay buffer was prepared following the table below;
• ii. 8 doses of reference and exemplary test compounds were prepared starting from 10 mM stock solution as requested by 5-fold serial dilutions with 100%; • iii. (v/v) DMSO was prepared: a. 50 μl/well of 0.5% (v/v) PEI was added to UniFilter-96 GF/B plates. The plates were sealed and incubates at 4° C. for 3 hrs; b. After incubation, the plates were washed 3 times with ice-cold wash buffer (50 mM Tris, pH7.4); • iv. Preparation of assay plates: a. Cell membrane was diluted with assay buffer and 330 μl/well was added to 96 round deep well plates to reach a concentration of 20 μg/well; b. 8 concentrations of reference or exemplary test compounds were prepared and added 110 μl/well to 96 round deep well plates; c. [3H]-ketanserin was diluted with assay buffer to 5 nM (5× final concentration) and added 110 μl/well to 96 round deep well plates. • v. The plate were centrifuged at 1000 rpm for 30 secs and then agitated at 600 rpm, R.T. for 5 min. • vi. The plates were sealed and incubated at 27° C. for 90 min. • vii. The incubation was stopped by vacuum filtration onto GF/B filter plates followed by 4 times washing with ice-cold wash buffer (50 mM Tris, pH7.4). • vii. […] The filter plates were sealed and 40 μl/well of scintillation cocktail added. • x. The plate was read by using a Microbeta2 microplate counter.
For reference and exemplary test compounds, the results are expressed as % Inhibition, using the normalization equation: N=100−100×(U−C2)/(C1−C2), where U is the unknown value, C1 is the average of high controls, and C2 is the average of low controls. The IC50 was determined by fitting percentage of inhibition as a function of compound concentrations with Hill equation using XLfit.

[4] = target: human 5-HT2A (h5-HT2A) receptor (Homo sapiens (Human), UniProt P28223); assay: FLIPR assay, human 5-HT2A receptor under agonist mode; assay type: cell-based; conditions: FLIPR calcium
Method: I. Assessment of the Activated Effect of Exemplary Compounds of Formula I Targeting on Human 5-HT2A (h5-HT2A) Receptor Under Agonist Mode:
1. the Cells were cultured in cell culture medium (DMEM containing 10% FBS 1×penicillin-streptomycin 300 μg/ml G418 and 100 μg/ml hygromycin B) at 37° C., 5% (v/v) CO2.
2. One day before the assays, the cells were detached using TrypLE™ Express and cells were counted using cell counter.
3. 20000 cells/well were seeded in 30 μl/well culture medium to a 384-well cell plate and the cells were incubated overnight at 37° C., 5% (v/v) CO2.
4. On the assay day, 2× dye solution was prepared following the manual of the FLIPR® Calcium 6 Assay Kit: i. The dye was diluted with assay buffer(20 mM HEPES in 1×HBSS, PH7.4); ii. Probenecid was added to the final concentration of 5 mM; iii. Vortex vigorously for 1-2 minutes.
5. Medium was removed from cell plate by flicking the cell plate on towel papers.
6. 10 μl of assay buffer and 10 μl of 2× dye solution was added to each well of the cell plate.
7. The cell plate was placed on plate shaker, and the plate was agitated at 600 rpm for 2 minutes. The plate was incubated at 37° C. for 2 hours followed by additional 15-minute incubation at 25° C.
8. 3× compound in assay buffer was prepared: a. reference compounds were diluted to required concentration with DMSO. Compounds were added to a 384-well compound plate; b. Serial dilutions were performed; c. 10 mM test compounds were added to the compound plate, 3-fold serial dilutions were performed. d. […] 20 μl/well assay buffer was added to the compound plate; f. The plate was mixed on plate shaker for 2 mins;
i. The normalized fluorescence reading (RFU) was calculated as shown below, wherein Fmax and Fmin stand for maximum and minimum of calcium signal during defined time window: RFU=Fmax−Fmin
ii. The percentage activation was calculated by using following equation: […]
iii. EC50 was calculated by fitting % activation against log of compound concentrations with Hill equation using XLfit.

[5] = Mouse liver microsomes, with NADPH

Row | SMILES | Predicted hepatic CL [1] [mL/min/kg] | Remaining Percentage (%) 0 min ([1]; With NADPH) [%] | Remaining Percentage (%) 60 min ([1]; With NADPH) [%] | Remaining Percentage (%) 0 min ([1]; Without NADPH) [%] | Remaining Percentage (%) 60 min ([1]; Without NADPH) [%] | CLint scaled at 2 μM [1] [mL/min/kg] | Predicted hepatic CL [2, 5] [mL/min/kg] | Remaining Percentage (%) 0 min ([2]; With NADPH) [%] | Remaining Percentage (%) 60 min ([2]; With NADPH) [%] | Remaining Percentage (%) 0 min ([2]; Without NADPH) [%] | Remaining Percentage (%) 60 min ([2]; Without NADPH) [%] | CLint scaled at 2 μM [2] [mL/min/kg] | Predicted hepatic CL [3] [mL/min/kg] | Remaining Percentage (%) 0 min ([3]; With NADPH) [%] | Remaining Percentage (%) 60 min ([3]; With NADPH) [%] | Remaining Percentage (%) 0 min ([3]; Without NADPH) [%] | Remaining Percentage (%) 60 min ([3]; Without NADPH) [%] | CLint scaled at 2 μM [3] [mL/min/kg] | IC50 (human 5-HT2A receptor) [µM] | EC50 [4] [µM] | also measured
1 | CN(C)CCc1c[nH]c2cccc(O)c12 [Psilocin, 4-hydroxy-N,N-dimethyltryptamine, reference compound] | 18.53 | 100.00 | 62.68 | 100.00 | 96.98 | 27.9 | 29.00 | 100.00 | 74.57 | 100.00 | 91.98 | 42.8 | 8.64 | 100.00 | 70.16 | 100.00 | 87.13 | 14.8 | – | – | –
2 | [2H]C([2H])N1CCC(c2c[nH]c3cccc(OCc4ccccc4)c23)C1 (single isomer, unassigned) [Compound I-36, 4-(benzyloxy)-3-(1-(methyl-d2)pyrrolidin-3-yl)-1H-indole] | 33.57 | 100.00 | 23.82 | 100.00 | 95.23 | 85.7 | 74.95 | 100.00 | 4.62 | 100.00 | 101.31 | 448 | 12.51 | 100.00 | 46.97 | 100.00 | 112.84 | 31.6 | > 10 | > 10 | half-life at 2 μM [1]: 0.483 h; microsomal CLint at 2 μM [1]: 47.8 µL/min/mg; half-life at 2 μM [2]: 0.225 h; microsomal CLint at 2 μM [2]: 102 µL/min/mg; half-life at 2 μM [3]: 0.917 h; microsomal CLint at 2 μM [3]: 25.2 µL/min/mg
3 | [2H]C1([2H])CC(c2c[nH]c3cccc(O)c23)C([2H])([2H])N1C (stereo not drawn) [Compound I-34, 3-(1-methylpyrrolidin-3-yl-2,2,5,5-d4)-1H-indol-4-ol] | 23.24 | 100.00 | 51.06 | 100.00 | 85.53 | 40.1 | 38.03 | 100.00 | 63.66 | 100.00 | 96.60 | 65.9 | 4.02 | 100.00 | 88.74 | 100.00 | 80.14 | 4.99 | 1 to 10 | < 1 | half-life at 2 μM [1]: 1.03 h; microsomal CLint at 2 μM [1]: 22.4 µL/min/mg; half-life at 2 μM [2]: 1.53 h; microsomal CLint at 2 μM [2]: 15.1 µL/min/mg; half-life at 2 μM [3]: 5.8 h; microsomal CLint at 2 μM [3]: 3.98 µL/min/mg
4 | [2H]C1([2H])CC(c2c[nH]c3cccc(O)c23)C([2H])([2H])N1 (stereo not drawn) [Compound I-33, 3-(pyrrolidin-3-yl-2,2,5,5-d4)-1H-indol-4-ol] | 15.15 | 100.00 | 70.49 | 100.00 | 105.30 | 20.9 | 0.00 | 100.00 | 103.45 | 100.00 | 118.32 | – | 1.24 | 100.00 | 96.89 | 100.00 | 115.64 | 1.32 | < 1 | > 10 | half-life at 2 μM [1]: 1.98 h; microsomal CLint at 2 μM [1]: 11.7 µL/min/mg; T1/2 (min) ([2]; Mouse liver microsomes, with NADPH, 2 μM): ∞; half-life at 2 μM [3]: 22 h; microsomal CLint at 2 μM [3]: 1.05 µL/min/mg
5 | [2H]C([2H])N1C([2H])([2H])CC(c2c[nH]c3cccc(F)c23)C1([2H])[2H] (stereo not drawn) [Compound I-41, 4-fluoro-3-(1-(methyl-d2)pyrrolidin-3-yl-2,2,5,5-d4)-1H-indole] | – | – | – | – | – | – | – | – | – | – | – | – | – | – | – | – | – | – | 1 to 10 | 1 to 10 | –
